Drawing on patent US12037334B2, “Inhibitors of VAP-1” (ACUCELA INC., priority 2018, dated 2024), this text covers IC50 for ten compounds.

Common to all, as to type: biochemical
Test [1] concerns the target T1, rhVAP-1 (Homo sapiens, UniProt Q16853).
T1 construct: purchased R&D Systems
T1 sequence (Q16853 1-763): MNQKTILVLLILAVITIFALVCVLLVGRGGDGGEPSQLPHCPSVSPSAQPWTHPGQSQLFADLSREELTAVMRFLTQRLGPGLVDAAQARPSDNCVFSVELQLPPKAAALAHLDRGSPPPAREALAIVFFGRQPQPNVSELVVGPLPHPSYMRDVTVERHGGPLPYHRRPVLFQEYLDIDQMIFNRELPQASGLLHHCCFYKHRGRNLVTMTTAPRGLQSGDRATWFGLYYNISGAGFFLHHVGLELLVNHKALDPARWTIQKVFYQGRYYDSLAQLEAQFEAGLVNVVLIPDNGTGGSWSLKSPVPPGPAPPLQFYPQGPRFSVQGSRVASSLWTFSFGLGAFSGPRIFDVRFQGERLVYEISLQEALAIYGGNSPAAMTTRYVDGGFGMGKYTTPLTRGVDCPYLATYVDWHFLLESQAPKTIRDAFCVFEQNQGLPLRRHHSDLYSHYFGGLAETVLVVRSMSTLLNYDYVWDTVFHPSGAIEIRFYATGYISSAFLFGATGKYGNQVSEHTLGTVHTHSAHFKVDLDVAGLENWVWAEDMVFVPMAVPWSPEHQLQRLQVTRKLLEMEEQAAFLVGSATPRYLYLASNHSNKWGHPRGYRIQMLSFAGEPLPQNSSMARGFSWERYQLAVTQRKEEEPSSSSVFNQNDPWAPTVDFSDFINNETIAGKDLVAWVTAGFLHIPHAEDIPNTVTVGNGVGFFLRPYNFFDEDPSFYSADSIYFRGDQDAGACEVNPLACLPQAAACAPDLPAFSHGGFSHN
The test can be described thus: VAP-1 Assay (fluorometric, Amplex Red/HRP, benzylamine substrate). As to conditions: rhVAP-1, benzylamine 50 μM, 30 minutes at 37° C., 10 mM NaHCO3 pH 7.4. The protocol: The capability of compounds described herein to inhibit the enzymatic activity of vascular adhesion protein-1 (VAP-1) was determined by fluorometric assay. The assay procedure provided by R&D Systems was modified slightly for use as an inhibitor screening assay. The assay measured the H2O2 generated from the oxidative deamination of benzylamine by rhVAP-1 by converting Amplex® Red to the fluorescent product, resorufin, via horseradish peroxidase (HRP) and H2O2. Reaction buffer was 10 mM NaHCO3, pH 7.4. A standard curve was prepared by serially diluting H2O2 in reaction buffer. A 10 μM solution of resorufin was prepared in reaction buffer and was dispensed to 2 wells. These wells served as positive control for maximum fluorescence. Reaction buffer was added to the individual wells so that the final volume in each well was 100 μL. Amplex Red was diluted to 1 mM in reaction buffer. A 10U stock of HRP was prepared in reaction buffer. A reaction cocktail was prepared by mixing equal parts 1 mM Amplex Red with 10U HRP with 3 parts reaction buffers. The reaction cocktail was added to the appropriate wells, so that that final concentration in the well was 0.05 mM Amplex Red and 0.5U HRP. A 200 μM solution of benzylamine was prepared in reaction buffer. Benzylamine was added to the appropriate wells so that the final concentration was 50 μM. Inhibitors were diluted in DMSO to 20× and distributed to the appropriate wells. UP-1207 served a positive control. rhVAP-1 was purchased from R&D Systems. The concentration used for each lot was determined so that the activity was equal to the first lot. Two wells were left blank as controls. The plate was incubated for 30 minutes at 37° C., protected from light under foil. The plate was read at 530/35 emission and 590/35 excitation. Data processing was performed using Excel and Prism software.
The capability of compounds described herein to inhibit the enzymatic activity of vascular adhesion protein-1 (VAP-1) was determined by fluorometric assay. The assay procedure provided by R&D Systems was modified slightly for use as an inhibitor screening assay. The assay measured the H2O2 generated from the oxidative deamination of benzylamine by rhVAP-1 by converting Amplex® Red to the fluorescent product, resorufin, via horseradish peroxidase (HRP) and H2O2. Amplex Red, HRP, Benzylamine, inhibitors (with DMSO as vehicle, 0.5% v/v) and rhVAP-1 were added to the wells. Assay was conducted in 10 mM NaHCO3, pH 7.4. A standard curve was prepared by serially diluting H2O2 in reaction buffer. The plate was incubated for 30 minutes at 37° C., protected from light under foil. The plate was read at 530/35 emission and 590/35 excitation. Data processing was performed using Prism software.

Test [2] concerns the target T2, rhMAO-A (Homo sapiens, UniProt P21397).
T2 construct: purchased Sigma
T2 sequence (P21397 1-527): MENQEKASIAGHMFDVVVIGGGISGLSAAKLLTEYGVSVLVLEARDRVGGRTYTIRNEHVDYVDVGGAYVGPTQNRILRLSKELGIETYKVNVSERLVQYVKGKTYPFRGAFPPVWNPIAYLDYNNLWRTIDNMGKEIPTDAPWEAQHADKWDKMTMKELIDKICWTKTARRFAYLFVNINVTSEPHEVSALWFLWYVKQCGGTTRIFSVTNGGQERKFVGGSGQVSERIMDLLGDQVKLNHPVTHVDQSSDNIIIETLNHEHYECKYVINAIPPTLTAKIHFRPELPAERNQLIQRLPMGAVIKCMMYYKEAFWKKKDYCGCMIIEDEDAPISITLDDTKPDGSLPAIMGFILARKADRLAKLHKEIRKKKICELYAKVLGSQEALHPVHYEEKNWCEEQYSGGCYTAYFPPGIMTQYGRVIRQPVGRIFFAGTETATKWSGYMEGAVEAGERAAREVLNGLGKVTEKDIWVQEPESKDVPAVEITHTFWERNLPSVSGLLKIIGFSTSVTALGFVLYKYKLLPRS
The test can be described thus: MAO Assay (modified Promega MAO-Glo), MAO-A inhibition. As to conditions: substrate 10 μM, 1 hour at room temperature. The protocol: (§1) The capability of compounds described herein to inhibit MAO was determined using a modified Promega MAO-Glo™ assay kit. The substrate ((4S)-4,5-dihydro-2-(6-hydroxybenzothiazolyl)-4-thiazolecarboxylic acid) was converted by MAO to produce methyl ester luciferin. The luciferin was then converted by luciferase to produce oxyluciferin and light. The light was measured using a luminescence setting on the plate reader. A standard curve was prepared by serially diluting luciferin in reaction buffer. The standard kit reaction buffer was used—100 mM HEPES (pH 7.5), 5% glycerol. The substrate was dispensed into the wells so that the final concentration for MAO-A inhibition assay would be 10 μM and MAO-B inhibition assay would be 1 μM. Inhibitors were diluted in DMSO to 4× and distributed to the appropriate wells. Clorgyline and Deprenyl served as positive controls. rhMAO-A and rhMAO-B were purchased from Sigma. MAO-A or MAO-B was added to the appropriate wells. The plate was incubated for 1 hour, at room temperature with gentle shaking (90 rpm). The detection agent was added at equal volume (48 μL detection agent to 48 μL reaction). The plate was incubated for 20 minutes, at room temperature with gentle shaking (90 rpm). The plate luminescence was read. Data processing was performed using Prism software.
(§2) The capability of compounds described herein to inhibit MAO was determined using a modified Promega MAO-Glo™ assay. Test compounds, substrate and enzyme were incubated per manufacturer instructions for lhour, at room temperature with gentle shaking (90 rpm) before addition of detection agent. The detection agent was added at equal volume (48 μL detection agent to 48 μL reaction). The plate was incubated for 20 minutes, at room temperature with gentle shaking (90 rpm). The plate luminescence was read. Data processing was performed using Prism software.

Test [3] has as its target T3, rhMAO-B (Homo sapiens, UniProt P27338).
T3 construct: purchased Sigma
T3 sequence (P27338 1-520): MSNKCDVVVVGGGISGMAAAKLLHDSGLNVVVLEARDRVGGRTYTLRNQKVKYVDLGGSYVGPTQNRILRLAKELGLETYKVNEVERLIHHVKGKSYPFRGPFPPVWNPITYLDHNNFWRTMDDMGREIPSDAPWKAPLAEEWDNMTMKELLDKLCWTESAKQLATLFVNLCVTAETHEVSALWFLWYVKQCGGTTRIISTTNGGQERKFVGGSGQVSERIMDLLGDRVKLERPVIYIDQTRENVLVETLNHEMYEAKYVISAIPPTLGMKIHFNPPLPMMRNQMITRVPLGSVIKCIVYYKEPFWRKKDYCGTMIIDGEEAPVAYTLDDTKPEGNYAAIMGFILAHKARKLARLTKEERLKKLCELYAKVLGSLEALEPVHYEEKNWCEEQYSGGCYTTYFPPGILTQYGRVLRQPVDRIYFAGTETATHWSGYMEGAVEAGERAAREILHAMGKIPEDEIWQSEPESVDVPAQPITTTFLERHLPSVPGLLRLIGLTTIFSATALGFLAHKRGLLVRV
The test can be described thus: MAO Assay (modified Promega MAO-Glo), MAO-B inhibition. As to conditions: substrate 1 μM, 1 hour at room temperature. Here is the method:
as §1, §2

The IC50 is the concentration that inhibits the measured activity by half. Take `CCCCc1nc2cc(OC/C(=C/F)CN)ccn2n1` [Example 3, (E)-2-(((2-butyl-[1,2,4]triazolo[1,5-a]pyridin-7-yl)oxy)methyl)-3-fluoroprop-2-en-1-amine 4-methylbenzenesulfonate]: the figures for the IC50 in test [1], in test [2] (class symbols) and in test [3] were less than 100 nM, 10 to 30 µM and 1000 to 10000 nM, respectively.
Turning to `CCCCc1cn2cc(OC/C(=C/F)CNC(=O)OC(C)(C)C)cnc2n1` [Example 10, tert-butyl (E)-(2-(((2-butylimidazo[1,2-a]pyrimidin-6-yl)oxy)methyl)-3-fluoroallyl)carbamate], the IC50 is less than 100 nM in test [1], more than 50 µM in test [2] (cells printed as bound in μM) and 1000 to 10000 nM in test [3].
Regarding `CCCCc1cc2cc(OC/C(=C/F)CN)ccn2n1` [Example 8, (E)-2-(((2-butylpyrazolo[1,5-a]pyridin-5-yl)oxy)methyl)-3-fluoroprop-2-en-1-amine bis(4-methylbenzenesulfonate)], the IC50 in test [1] is less than 100 nM; in test [2] (class symbols), 1 to 10 µM; in test [3], 100 to 1000 nM.
Taken in the same sequence, the figures for `CCCCc1cn2cc(OC/C(=C\F)CN)ccc2n1` [Example 5, (Z)-2-(((2-butylimidazo[1,2-a]pyridin-6-yl)oxy)methyl)-3-fluoroprop-2-en-1-amine 4-methylbenzenesulfonate] were less than 100 nM, 10 to 30 µM and 1000 to 10000 nM.
The like results for `NC/C(=C/F)COc1ccc2nc(C3CCCC3)cn2c1` [Example 9, (Z)-2-(((2-cyclopentylimidazo[1,2-a]pyridin-6-yl)oxy)methyl)-3-fluoroprop-2-en-1-amine 4-methylbenzenesulfonate] were, in that order, less than 100 nM, 1 to 10 µM and 1000 to 10000 nM.
The like results for `CCCCc1cn2cc(OC/C(=C/F)CN)ccc2n1` [Example 1, (E)-2-(((2-butylimidazo[1,2-a]pyridin-6-yl)oxy)methyl)-3-fluoroprop-2-en-1-amine bis(4-methylbenzenesulfonate)] were, in that order, less than 100 nM, 10 to 30 µM and 1000 to 10000 nM.
In the case of `CCCCc1nc2ccc(OC/C(=C/F)CN)cn2n1` [Example 4, (E)-2-(((2-butyl-[1,2,4]triazolo[1,5-a]pyridin-6-yl)oxy)methyl)-3-fluoroprop-2-en-1-amine 4-methylbenzenesulfonate], the IC50 in test [1] is less than 100 nM; in test [2] (class symbols) it was 10 to 30 µM; in test [3], 100 to 1000 nM.
With `CCCCc1cn2nc(OC/C(=C/F)CN)ccc2n1` [Example 7, (E)-2-(((2-butylimidazo[1,2-b]pyridazin-6-yl)oxy)methyl)-3-fluoroprop-2-en-1-amine 4-methylbenzenesulfonate], the values for the IC50 in test [1], in test [2] (cells printed as bound in μM) and in test [3] were less than 100 nM, more than 50 µM and 100 to 1000 nM, respectively.
On to `CCCCc1cc2ccc(OC/C(=C/F)CN)cn2n1` [Example 6], for which the 50% inhibitory concentration (IC50) in test [1] was less than 100 nM; in test [2] (class symbols), 10 to 30 µM; in test [3] it was 100 to 1000 nM.
`CCCCc1cn2ccc(OC/C(=C/F)CN)cc2n1` [Example 2, (E)-2-(((2-butylimidazo[1,2-a]pyridin-7-yl)oxy)methyl)-3-fluoroprop-2-en-1-amine 4-methylbenzenesulfonate]: the IC50 in test [1] was less than 100 nM; in test [2] (class symbols), 10 to 30 µM; in test [3], 10000 to 30000 nM.
